Reference: PubChem BioAssay (NCI)
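Cultured in 96-well plates, cells were exposed to test compound for 48 hours across five concentrations. Definition used: TGI = concentration required for complete inhibition of growth.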

Each compound was assayed on SNB-19 CNS (assay: inhibition of tumour cell growth, NCI panel, 48 h).

SMILES	TGI
COC(=O)C1CC2c3c(c4ccccc4n3C)CC(C1=O)N2C (stereo unspecified)	> 100 µM
CC(C)c1ccccc1NC(=O)CCC(=O)NN	> 100 µM
NC(N)=N/N=C(/CCN1CCCC1)CC(c1ccccc1)c1c(O)c2ccccc2oc1=O (stereo unspecified)	> 100 µM
Clc1ccc(OCc2nnc3n2N=C(c2ccccc2)CS3)cc1	46.3 µM
CC(=O)N(C(C)=O)c1c(N)n(C)c(=O)[nH]c1=O	> 100 µM

The compounds below were run on SF-539 CNS (assay: inhibition of tumour cell growth, NCI panel, 48 h).

SMILES	TGI
COC(=O)C1CC2c3c(c4ccccc4n3C)CC(C1=O)N2C (stereo unspecified)	> 100 µM
CC(C)c1ccccc1NC(=O)CCC(=O)NN	> 100 µM
NC(N)=N/N=C(/CCN1CCCC1)CC(c1ccccc1)c1c(O)c2ccccc2oc1=O (stereo unspecified)	> 100 µM
Clc1ccc(OCc2nnc3n2N=C(c2ccccc2)CS3)cc1	33.3 µM
CC(=O)N(C(C)=O)c1c(N)n(C)c(=O)[nH]c1=O	> 100 µM

What follows are compounds tested on CAKI-1 renal (assay: inhibition of tumour cell growth, NCI panel, 48 h).

SMILES	TGI
COC(=O)C1CC2c3c(c4ccccc4n3C)CC(C1=O)N2C (stereo unspecified)	> 100 µM
CC(C)c1ccccc1NC(=O)CCC(=O)NN	> 100 µM
NC(N)=N/N=C(/CCN1CCCC1)CC(c1ccccc1)c1c(O)c2ccccc2oc1=O (stereo unspecified)	> 100 µM
Clc1ccc(OCc2nnc3n2N=C(c2ccccc2)CS3)cc1	61.8 µM
CC(=O)N(C(C)=O)c1c(N)n(C)c(=O)[nH]c1=O	> 100 µM

These compounds were tested on LXFL 529 NSCLC (assay: inhibition of tumour cell growth, NCI panel, 48 h).

SMILES	TGI
COC(=O)C1CC2c3c(c4ccccc4n3C)CC(C1=O)N2C (stereo unspecified)	> 100 µM
CC(C)c1ccccc1NC(=O)CCC(=O)NN	> 100 µM
NC(N)=N/N=C(/CCN1CCCC1)CC(c1ccccc1)c1c(O)c2ccccc2oc1=O (stereo unspecified)	> 100 µM
Clc1ccc(OCc2nnc3n2N=C(c2ccccc2)CS3)cc1	40.7 µM
CC(=O)N(C(C)=O)c1c(N)n(C)c(=O)[nH]c1=O	> 100 µM

These compounds were tested on SW-620 colon (assay: inhibition of tumour cell growth, NCI panel, 48 h).

SMILES	TGI
COC(=O)C1CC2c3c(c4ccccc4n3C)CC(C1=O)N2C (stereo unspecified)	> 100 µM
CC(C)c1ccccc1NC(=O)CCC(=O)NN	> 100 µM
NC(N)=N/N=C(/CCN1CCCC1)CC(c1ccccc1)c1c(O)c2ccccc2oc1=O (stereo unspecified)	> 100 µM
Clc1ccc(OCc2nnc3n2N=C(c2ccccc2)CS3)cc1	32.9 µM
CC(=O)N(C(C)=O)c1c(N)n(C)c(=O)[nH]c1=O	> 100 µM

Each compound was assayed on OVCAR-5 ovarian (assay: inhibition of tumour cell growth, NCI panel, 48 h).

SMILES	TGI
COC(=O)C1CC2c3c(c4ccccc4n3C)CC(C1=O)N2C (stereo unspecified)	> 100 µM
Clc1ccc(OCc2nnc3n2N=C(c2ccccc2)CS3)cc1	36.1 µM
CC(=O)N(C(C)=O)c1c(N)n(C)c(=O)[nH]c1=O	> 100 µM

What follows are compounds tested on XF 498 CNS (assay: inhibition of tumour cell growth, NCI panel, 48 h).

SMILES	TGI
CC(C)c1ccccc1NC(=O)CCC(=O)NN	> 100 µM
NC(N)=N/N=C(/CCN1CCCC1)CC(c1ccccc1)c1c(O)c2ccccc2oc1=O (stereo unspecified)	> 100 µM
Clc1ccc(OCc2nnc3n2N=C(c2ccccc2)CS3)cc1	30.9 µM
CC(=O)N(C(C)=O)c1c(N)n(C)c(=O)[nH]c1=O	> 100 µM

These compounds were tested on M19-MEL melanoma (assay: inhibition of tumour cell growth, NCI panel, 48 h).

SMILES	TGI
COC(=O)C1CC2c3c(c4ccccc4n3C)CC(C1=O)N2C (stereo unspecified)	> 100 µM
CC(C)c1ccccc1NC(=O)CCC(=O)NN	> 100 µM
NC(N)=N/N=C(/CCN1CCCC1)CC(c1ccccc1)c1c(O)c2ccccc2oc1=O (stereo unspecified)	> 100 µM
Clc1ccc(OCc2nnc3n2N=C(c2ccccc2)CS3)cc1	33.1 µM
CC(=O)N(C(C)=O)c1c(N)n(C)c(=O)[nH]c1=O	> 100 µM

The compounds below were run on SK-MEL-5 melanoma (assay: inhibition of tumour cell growth, NCI panel, 48 h).

SMILES	TGI
COC(=O)C1CC2c3c(c4ccccc4n3C)CC(C1=O)N2C (stereo unspecified)	> 100 µM
CC(=O)N(C(C)=O)c1c(N)n(C)c(=O)[nH]c1=O	> 100 µM

These compounds were tested on NCI-H460 lung (assay: inhibition of tumour cell growth, NCI panel, 48 h).

SMILES	TGI
COC(=O)C1CC2c3c(c4ccccc4n3C)CC(C1=O)N2C (stereo unspecified)	> 100 µM
Clc1ccc(OCc2nnc3n2N=C(c2ccccc2)CS3)cc1	30.5 µM
CC(=O)N(C(C)=O)c1c(N)n(C)c(=O)[nH]c1=O	> 100 µM

What follows are compounds tested on DMS 273 small cell lung (assay: inhibition of tumour cell growth, NCI panel, 48 h).

SMILES	TGI
COC(=O)C1CC2c3c(c4ccccc4n3C)CC(C1=O)N2C (stereo unspecified)	43.6 µM
CC(C)c1ccccc1NC(=O)CCC(=O)NN	> 100 µM
Clc1ccc(OCc2nnc3n2N=C(c2ccccc2)CS3)cc1	30.5 µM
CC(=O)N(C(C)=O)c1c(N)n(C)c(=O)[nH]c1=O	> 100 µM

The compounds below were run on OVCAR-8 ovarian (assay: inhibition of tumour cell growth, NCI panel, 48 h).

SMILES	TGI
COC(=O)C1CC2c3c(c4ccccc4n3C)CC(C1=O)N2C (stereo unspecified)	> 100 µM
Clc1ccc(OCc2nnc3n2N=C(c2ccccc2)CS3)cc1	27.3 µM
CC(=O)N(C(C)=O)c1c(N)n(C)c(=O)[nH]c1=O	> 100 µM

What follows are compounds tested on NCI-H522 lung (assay: inhibition of tumour cell growth, NCI panel, 48 h).

SMILES	TGI
COC(=O)C1CC2c3c(c4ccccc4n3C)CC(C1=O)N2C (stereo unspecified)	34.8 µM
CC(C)c1ccccc1NC(=O)CCC(=O)NN	> 100 µM
NC(N)=N/N=C(/CCN1CCCC1)CC(c1ccccc1)c1c(O)c2ccccc2oc1=O (stereo unspecified)	> 100 µM
Clc1ccc(OCc2nnc3n2N=C(c2ccccc2)CS3)cc1	36.5 µM

What follows are compounds tested on NCI-H23 lung (assay: inhibition of tumour cell growth, NCI panel, 48 h).

SMILES	TGI
COC(=O)C1CC2c3c(c4ccccc4n3C)CC(C1=O)N2C (stereo unspecified)	> 100 µM
CC(C)c1ccccc1NC(=O)CCC(=O)NN	> 100 µM
NC(N)=N/N=C(/CCN1CCCC1)CC(c1ccccc1)c1c(O)c2ccccc2oc1=O (stereo unspecified)	> 100 µM
Clc1ccc(OCc2nnc3n2N=C(c2ccccc2)CS3)cc1	25.2 µM
CC(=O)N(C(C)=O)c1c(N)n(C)c(=O)[nH]c1=O	> 100 µM

These compounds were tested on HCT-116 colon (assay: inhibition of tumour cell growth, NCI panel, 48 h).

SMILES	TGI
COC(=O)C1CC2c3c(c4ccccc4n3C)CC(C1=O)N2C (stereo unspecified)	92.8 µM
CC(C)c1ccccc1NC(=O)CCC(=O)NN	> 100 µM
NC(N)=N/N=C(/CCN1CCCC1)CC(c1ccccc1)c1c(O)c2ccccc2oc1=O (stereo unspecified)	> 100 µM
